According to BindingDB's records for doi:10.1021/jm00378a002 (1985):

Biological target: uridine-cytidine kinase (Mus musculus)
Experiment: Binding affinity to uridine kinase from L1210. was determined from the dixon plot

Ki: 230 µM
SMILES: O=c1ccn([C@@H]2C=C(CO)[C@@H](O)[C@H]2O)c(=O)[nH]1 [1-(4,5-Dihydroxy-3-hydroxymethyl-cyclopent-2-enyl)-4-hydroxy-1H-pyrimidin-2-one]
